Reference: ChEMBL document CHEMBL1201862, “PubChem BioAssay data set” (2004)
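Results reflect a 48-hour exposure of cells in 96-well plates to compound at five concentrations. At the GI50, growth is halved.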 Calls of active or inactive are those of the source. Rule as the data show it: active = GI50 up to about 1.1 µM and inactive = higher.

What was measured:
Assay in all cases: NCI anticancer screen, dose series, 48 h
UACC-257 = tested on: UACC-257
SF-295 = tested on: SF-295
SF-539 = tested on: SF-539
SN12C = tested on: SN12C
NCI-H460 = tested on: NCI-H460
UO-31 = tested on: UO-31
M19-MEL = tested on: M19-MEL
KM12 = tested on: KM12
HCT-15 = tested on: HCT-15
EKVX = tested on: EKVX
OVCAR-8 = tested on: OVCAR-8
SR = tested on: SR
IGROV-1 = tested on: IGROV-1
Malme-3M = tested on: Malme-3M
SNB-19 = tested on: SNB-19
MOLT-4 = tested on: MOLT-4
LOX IMVI = tested on: LOX IMVI

Row | Compound | GI50 (UACC-257) | GI50 (SF-295) | GI50 (SF-539) | GI50 (SN12C) | GI50 (NCI-H460) | GI50 (UO-31) | GI50 (M19-MEL) | GI50 (KM12) | GI50 (HCT-15) | GI50 (EKVX) | GI50 (OVCAR-8) | GI50 (SR) | GI50 (IGROV-1) | GI50 (Malme-3M) | GI50 (SNB-19) | GI50 (MOLT-4) | GI50 (LOX IMVI)
1 | C/C(CN1C(=O)c2ccccc2C1=O)=N\NS(=O)(=O)c1ccc(Cl)cc1 | > 100 µM (inactive) | > 100 µM (inactive) | > 100 µM (inactive) | 18.8 µM (inactive) | > 100 µM (inactive) | > 100 µM (inactive) | > 100 µM (inactive) | > 100 µM (inactive) | > 100 µM | > 100 µM (inactive) | > 100 µM (inactive) | > 100 µM (inactive) | > 100 µM (inactive) | > 100 µM (inactive) | > 100 µM (inactive) | > 100 µM (inactive) | 
2 | CC(=O)C1C(=O)C(=O)N(CCN2C(=O)C(=O)C(C(C)=O)C2=O)C1=O (configuration not stated) | > 100 µM (inactive) | > 100 µM (inactive) | > 100 µM (inactive) | > 100 µM (inactive) | > 100 µM (inactive) | > 100 µM (inactive) | > 100 µM (inactive) | > 100 µM (inactive) | > 100 µM | > 100 µM (inactive) | > 100 µM (inactive) |  | > 100 µM (inactive) | > 100 µM (inactive) | > 100 µM (inactive) |  | > 100 µM (inactive)
3 | CC(C)N(C(=O)C12C3C4C5C3C1(C(=O)O)C5C42)C(C)C (configuration not stated) | > 100 µM (inactive) | > 100 µM (inactive) | > 100 µM (inactive) | > 100 µM (inactive) | > 100 µM (inactive) | > 100 µM (inactive) | > 100 µM (inactive) | > 100 µM (inactive) | > 100 µM | > 100 µM (inactive) | > 100 µM (inactive) |  | > 100 µM (inactive) | > 100 µM (inactive) | > 100 µM (inactive) | > 100 µM (inactive) | > 100 µM (inactive)
4 | COc1cccc(N2C(=O)[C@H]3[C@H]4CC(C(C)(C)C)CC[C@H]4c4c([nH]c5ccccc45)[C@H]3C2=O)c1 (some centres not stated) | 20.6 µM (inactive) | 15.1 µM (inactive) | 23 µM (inactive) | 13.4 µM (inactive) |  | 17.6 µM (inactive) | 19 µM (inactive) | 39 µM (inactive) | 34.6 µM | 20 µM (inactive) | 14.9 µM (inactive) |  | 17.1 µM (inactive) | 20.6 µM (inactive) | 18.9 µM (inactive) | 11.9 µM (inactive) | 16.5 µM (inactive)
5 | Cc1ccc(Nc2nc3c(s2)C(=O)c2ccccc2C3=O)cc1 | 1.75 µM (inactive) | 1.6 µM (inactive) | 5.35 µM (inactive) | 1.92 µM (inactive) | 1.94 µM (inactive) | 2.03 µM (inactive) | 0.324 µM (active) | 1.55 µM (inactive) | 1.94 µM | 5.14 µM (inactive) | 2.18 µM (inactive) |  | 1.64 µM (inactive) | 1.92 µM (inactive) | 1.79 µM (inactive) | 1.04 µM (active) | 1.58 µM (inactive)
6 | CC(=O)c1cc2c3c(c1)c1cc4c(cc1c(=O)n3CC2)OCO4 | 26.7 µM (inactive) | 26.9 µM (inactive) | 32.6 µM (inactive) | 16.8 µM (inactive) | 11.2 µM (inactive) | 8.11 µM (inactive) | 34 µM (inactive) | 8.63 µM (inactive) | 19.8 µM | 46.2 µM (inactive) | 8.3 µM (inactive) | 4.32 µM (inactive) | 28.8 µM (inactive) | 23.3 µM (inactive) | 28.5 µM (inactive) | 2.92 µM (inactive) | 13.9 µM (inactive)
7 | Cc1nc2ccccc2c(=O)n1/N=C(\N=N\c1cc(Cl)ccc1Cl)c1cccc(-c2ccco2)c1 | > 100 µM (inactive) | > 100 µM (inactive) | > 100 µM (inactive) | 88.3 µM (inactive) | > 100 µM (inactive) | 37.7 µM (inactive) | > 100 µM (inactive) | 82.6 µM (inactive) | 74.6 µM | > 100 µM (inactive) | 95.9 µM (inactive) |  | 61.4 µM (inactive) | > 100 µM (inactive) | > 100 µM (inactive) | 35.3 µM (inactive) | > 100 µM (inactive)
8 | O=S(=O)(N/N=C/c1ccc(Cl)c(Cl)c1)c1ccccc1 | 38.8 µM (inactive) | 33.9 µM (inactive) | 44.8 µM (inactive) | 37.7 µM (inactive) |  | 27 µM (inactive) | 37.3 µM (inactive) | 29 µM (inactive) | 36.1 µM | 64.9 µM (inactive) | 25.7 µM (inactive) | 42.3 µM (inactive) | 33.3 µM (inactive) | > 100 µM (inactive) |  | 28.1 µM (inactive) | 43.9 µM (inactive)
9 | CCc1c(OC(C)=O)c2c(NC3OC(COC(C)=O)C(OC(C)=O)C(OC(C)=O)C3OC(C)=O)nc(OC)nc2oc1=O (configuration not stated) | > 100 µM (inactive) | > 100 µM (inactive) | > 100 µM (inactive) | > 100 µM (inactive) | > 100 µM (inactive) | > 100 µM (inactive) | > 100 µM (inactive) | > 100 µM (inactive) | > 100 µM | > 100 µM (inactive) | > 100 µM (inactive) |  | > 100 µM (inactive) | > 100 µM (inactive) | > 100 µM (inactive) | > 100 µM (inactive) | > 100 µM (inactive)
